The subject of one assay is HepG2. The assay can be described thus: Cytotoxicity against human HepG2 cells by MTT assay. The format is functional, cell-based.
The subject of the next assay is Raji. The assay can be described thus: Cytotoxicity against human Raji cells by MTT assay. The format is functional, cell-based. Background: Tetrazolium dyes change colour on reduction, which living cells bring about.

The term IC50 denotes the midpoint of a concentration-inhibition curve. A low value points to greater potency.

Consider `C[C@@H]1C[C@H](O)[C@]2(O)O[C@@H]3C[C@@]4(C=O)[C@@H](CC[C@@H]5[C@@H]4C[C@@H](O)[C@]4(C)[C@@H](C6=CC(=O)OC6)CC[C@]54O)C[C@H]3O[C@@H]2O1`, for which the IC50 was determined as 690 nM in the assay on HepG2 and 1460 nM with Raji.
In the same order, the values of `CC(=O)O[C@@H]1C[C@]2(O)[C@@H]3CC[C@H]4C[C@H]5O[C@@H]6O[C@H](C)C[C@H](O)[C@]6(O)O[C@@H]5C[C@]4(C=O)[C@H]3CC[C@]2(C)[C@H]1C1=CC(=O)OC1` are 1340 nM and 3540 nM.
On the same counts, the results for `CC(=O)O[C@H]1C[C@@H](C)O[C@H]2O[C@@H]3C[C@@H]4CC[C@@H]5[C@H](CC[C@]6(C)[C@@H](C7=CC(=O)OC7)[C@H](OC(C)=O)C[C@]56O)[C@@]4(C=O)C[C@H]3O[C@]21O` are 760 nM and 3210 nM.
Regarding `CC(=O)O[C@H]1C[C@@H](C)O[C@H]2O[C@@H]3C[C@@H]4CC[C@@H]5[C@H](CC[C@]6(C)[C@@H](C7=CC(=O)OC7)[C@H](O)C[C@]56O)[C@@]4(C=O)C[C@H]3O[C@]21O`, the IC50 with HepG2 was determined as 3030 nM; with Raji it was 50 nM.
In the same order, the values of `CO[C@]12CC[C@@]3(CO1)[C@@H](CC[C@@H]1[C@@H]3C[C@@H](O)[C@]3(C)[C@@H](C4=CC(=O)OC4)CC[C@]13O)C2` are 89900 nM and 64700 nM.
On the same counts, the results for `COc1cc(/C=C/C(=O)OC[C@H]2O[C@@H](O[C@H]3CC[C@@]4(C)[C@@H](CC[C@@H]5[C@@H]4CC[C@]4(C)[C@@H](C6=CC(=O)OC6)CC[C@]54O)C3)[C@H](O)[C@@H](O)[C@@H]2O)ccc1O` are above 100000 nM and 41100 nM.
On the same counts, the results for `C[C@]12[C@H](O)C[C@H]3[C@@H](CC[C@H]4C[C@@H](O)CC[C@@]43CO)[C@@]1(O)CC[C@@H]2C1=CC(=O)OC1` are 5170 nM and 14600 nM.
`CC(=O)O[C@H]1C[C@@H](C)O[C@H]2O[C@@H]3C[C@@H]4CC[C@@H]5[C@H](CC[C@]6(C)[C@@H](C7=CC(=O)OC7)CC[C@]56O)[C@@]4(C=O)C[C@H]3O[C@]21O` [ASCLEPIN]: the IC50 in the assay on HepG2 and with Raji was 20 nM throughout.
As for `C[C@]12CC[C@H]3[C@@H](CC[C@H]4C[C@@H](O)[C@H](O)C[C@@]43C=O)[C@@]1(O)CC[C@@H]2C1=CC(=O)OC1` [CALOTROPAGENIN], the values for the IC50 in the assay on HepG2 and with Raji were 56600 nM and 24300 nM, respectively.
On the same counts, the results for `C[C@@H]1C[C@H](O)[C@]2(O)O[C@@H]3C[C@@]4(C=O)[C@@H](CC[C@@H]5[C@@H]4CC[C@]4(C)[C@@H](C6=CC(=O)OC6)CC[C@]54O)C[C@H]3O[C@@H]2O1` [CALOTROPIN] are 40 nM and 20 nM.
On the same counts, the results for `C[C@]12CC[C@H]3[C@@H](CC[C@H]4C[C@@H](O)CC[C@@]43CO)[C@@]1(O)CC[C@@H]2C1=CC(=O)OC1` [COROGLAUCIGENIN] are 6700 nM and 140 nM.
In the same order, the values of `C[C@]12CC[C@H](O[C@@H]3O[C@H](CO)[C@@H](O)[C@H](O)[C@H]3O)C[C@@H]1CC[C@@H]1[C@@H]2CC[C@]2(C)[C@@H](C3=CC(=O)OC3)CC[C@]12O` [DESGLUCOUZARIN] are 8530 nM and 750 nM.
As to `C[C@@H]1CC(=O)[C@]2(O)O[C@@H]3C[C@@]4(C=O)[C@@H](CC[C@@H]5[C@@H]4CC[C@]4(C)[C@@H](C6=CC(=O)OC6)CC[C@]54O)C[C@H]3O[C@@H]2O1` [USCHARIDIN], the figures for the IC50 with HepG2 and in the assay with Raji were 380 nM and 20 nM, respectively.

(Values after ChEMBL document CHEMBL1153336, “Cytotoxicity of cardenolides and cardenolide glycosides from Asclepias curassavica” (Bioorg Med Chem Lett, 2009).)
